“And” between values parts separate entries of the source, which are not always exact repeats. Identical values can stand only once. Counter-ions that a name gives are not always drawn.
Molecular target: T1, Nicastrin (NCT) (Homo sapiens, UniProt Q92542)
T1 construct: Full length human NCT was purified as described previously; 6×His (C); FLAG (C); made in house; host or cells: High Five insect cells (baculovirus made in Sf9)
Assay: surface plasmon resonance, Nicastrin immobilized
Format: binding
Conditions: SPR, Biacore T100, CM5 chip; read-out: equilibrium dissociation constant (Kd), Nicastrin (NCT)
Procedure: A Biacore sensor Chip NTA that is designed to bind His-tagged proteins was used to immobilize γ-secretase. The SPR assay was performed in a running buffer (10 mM HEPES, 150 mM NaCl in the presence of 1% DMSO, pH 7.4). The purified His-tagged γ-secretase overexpressing human PS1, Flag-Pen-2, Aph-1a2-HA, and NCT-V5/His (see above) was diluted 6 times in DMSO-free running buffer. For each binding curve, the running buffer containing 500 μM NiCl2 was first injected to saturate the NTA chip. Then, His-tagged γ-secretase was injected and immobilized on the Ni^2+ -coated sensor chip. Compounds at the indicated concentrations were injected onto the surface of the sensor chip, and the corresponding binding spectrum was recorded. The sensor chip was regenerated with regeneration buffer (10 mM HEPES, 150 mM NaCl, 350 mM EDTA, pH 8.3). Purified human NCT (100 μg) was immobilized onto the flow cell of a CM5 sensor chip in 10 mM sodium acetate (pH 4.0) by using an amine coupling kit. The SPR assay was performed in HBS-P running buffer (10 mM HEPES, 150 mM NaCl and 0.005% surfactant P20 in the presence of 1% DMSO, pH 7.4). […] The Kd values were determined with Biacore evaluation 3.1 software. […]
Recombinant bacmids were used to transfect Sf9 cells to make the baculovirus, which was then used to infect High Five suspension insect cells (Invitrogen). […]

T1 sequence (Q92542 34-709): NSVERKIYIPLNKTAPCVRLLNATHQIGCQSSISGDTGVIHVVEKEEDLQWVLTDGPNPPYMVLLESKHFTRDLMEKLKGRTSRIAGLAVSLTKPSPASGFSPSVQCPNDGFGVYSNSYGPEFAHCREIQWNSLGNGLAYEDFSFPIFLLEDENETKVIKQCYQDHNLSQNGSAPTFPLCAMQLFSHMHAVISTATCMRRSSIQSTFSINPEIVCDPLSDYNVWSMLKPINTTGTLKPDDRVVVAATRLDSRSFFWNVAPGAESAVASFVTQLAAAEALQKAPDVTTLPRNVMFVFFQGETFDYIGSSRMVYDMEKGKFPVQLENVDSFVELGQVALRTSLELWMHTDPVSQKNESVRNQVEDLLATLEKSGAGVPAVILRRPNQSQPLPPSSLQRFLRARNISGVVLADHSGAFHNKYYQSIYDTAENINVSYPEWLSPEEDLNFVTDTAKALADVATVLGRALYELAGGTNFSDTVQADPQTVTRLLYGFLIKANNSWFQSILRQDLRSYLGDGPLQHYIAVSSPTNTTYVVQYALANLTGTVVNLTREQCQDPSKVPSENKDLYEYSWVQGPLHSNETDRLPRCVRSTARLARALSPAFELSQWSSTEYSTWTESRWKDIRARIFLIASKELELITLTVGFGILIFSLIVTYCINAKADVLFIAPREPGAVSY

In the case of `CC(C)[C@@]1(NC(=O)[C@@H]2C[C@@H]3c4cccc5[nH]cc(c45)C[C@H]3N(C)C2)O[C@@]2(O)[C@@H]3CCCN3C(=O)[C@H](Cc3ccccc3)N2C1=O` [DHEC, Dihydroergocristine methanesulfonate salt], the Kd is reported as 9.85 µM and ~10 µM and 9.8 µM and 10 µM.
